From ChEMBL document CHEMBL1201862, “PubChem BioAssay data set” (2004)
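Step 1: Grow cells in 96-well plates. Step 2: Expose to compound for 48 hours at 5 concentrations. Step 3: Interpolate endpoints linearly; if unreached, use highest concentration. The concentration for 50% growth inhibition is given as GI50.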 The source made the active and inactive calls. Rule as the data show it: active = GI50 up to about 1.1 µM and inactive = higher.

Assays:
Assay in all cases: NCI anticancer screen, dose series, 48 h
NCI-H522 = test system: NCI-H522
ACHN = test system: ACHN
RPMI-8226 = test system: RPMI-8226
OVCAR-3 = test system: OVCAR-3
SF-268 = test system: SF-268
SK-OV-3 = test system: SK-OV-3
SK-MEL-2 = test system: SK-MEL-2
SNB-19 = test system: SNB-19
HOP-92 = test system: HOP-92
SK-MEL-28 = test system: SK-MEL-28
A549 = test system: A549
UO-31 = test system: UO-31
COLO 205 = test system: COLO 205
SF-295 = test system: SF-295
NCI-H226 = test system: NCI-H226
RXF 393 = test system: RXF 393

| SMILES | GI50 (NCI-H522) | GI50 (ACHN) | GI50 (RPMI-8226) | GI50 (OVCAR-3) | GI50 (SF-268) | GI50 (SK-OV-3) | GI50 (SK-MEL-2) | GI50 (SNB-19) | GI50 (HOP-92) | GI50 (SK-MEL-28) | GI50 (A549) | GI50 (UO-31) | GI50 (COLO 205) | GI50 (SF-295) | GI50 (NCI-H226) | GI50 (RXF 393) |
| --- | --- | --- | --- | --- | --- | --- | --- | --- | --- | --- | --- | --- | --- | --- | --- | --- |
| Cc1ccc(S(=O)(=O)C2c3nc4ccccc4cc3-c3nc4ccccc4nc32)cc1 (configuration not stated) | > 100 µM (inactive) | > 100 µM (inactive) | > 100 µM (inactive) | > 100 µM (inactive) | > 100 µM (inactive) | 0.693 µM (active) | > 100 µM (inactive) | > 100 µM (inactive) | > 100 µM (inactive) | > 100 µM (inactive) | > 100 µM (inactive) | > 100 µM (inactive) | > 100 µM (inactive) | – | – | – |
| Cc1c2n(c3ccccc13)CC1C2N(C)OC1(C)C (configuration not stated) | > 100 µM (inactive) | > 100 µM (inactive) | > 100 µM (inactive) | > 100 µM (inactive) | > 100 µM (inactive) | > 100 µM (inactive) | > 100 µM (inactive) | > 100 µM (inactive) | – | > 100 µM (inactive) | > 100 µM (inactive) | 86.7 µM (inactive) | > 100 µM (inactive) | > 100 µM (inactive) | > 100 µM (inactive) | – |
| O=[N+]([O-])c1ccc(NSc2ccccc2)cc1 | 17.2 µM (inactive) | 33.2 µM (inactive) | > 10 µM (inactive) | 34.8 µM (inactive) | 28.2 µM (inactive) | 29.9 µM (inactive) | 42.9 µM (inactive) | 70.3 µM (inactive) | 28.7 µM (inactive) | 45.3 µM (inactive) | 29 µM (inactive) | 26.8 µM (inactive) | 30.7 µM (inactive) | 27.6 µM (inactive) | – | 20 µM (inactive) |
| O=C(O)c1c[nH]c2c(ccc3ncccc32)c1=O | > 100 µM (inactive) | > 100 µM (inactive) | – | > 100 µM (inactive) | > 100 µM (inactive) | > 100 µM (inactive) | > 100 µM (inactive) | > 100 µM (inactive) | – | > 100 µM (inactive) | > 100 µM (inactive) | > 100 µM (inactive) | > 100 µM (inactive) | – | – | > 100 µM (inactive) |
| CN1CCn2c(Br)ccc2C1=O | > 100 µM (inactive) | > 100 µM (inactive) | > 100 µM (inactive) | > 100 µM (inactive) | > 100 µM (inactive) | – | > 100 µM (inactive) | > 100 µM (inactive) | – | > 100 µM (inactive) | > 100 µM (inactive) | > 100 µM (inactive) | > 100 µM (inactive) | > 100 µM (inactive) | > 100 µM (inactive) | > 100 µM (inactive) |
| CC(=O)OCC1OC(OC2C(CSC3OC(COC(C)=O)C(OC(C)=O)C(OC(C)=O)C3OC(C)=O)OC(OC(C)=O)C(OC(C)=O)C2OC(C)=O)C(OC(C)=O)C(OC(C)=O)C1OC(C)=O (configuration not stated) | > 100 µM (inactive) | > 100 µM (inactive) | > 100 µM (inactive) | > 100 µM (inactive) | > 100 µM (inactive) | > 100 µM (inactive) | – | > 100 µM (inactive) | > 100 µM (inactive) | > 100 µM (inactive) | > 100 µM (inactive) | > 100 µM (inactive) | > 100 µM (inactive) | > 100 µM (inactive) | 47.5 µM (inactive) | – |
| O=[N+]([O-])c1ccc(-c2csc(=[N+]3CCCCC3)s2)cc1 | 3.61 µM (inactive) | 40.6 µM (inactive) | 20.2 µM (inactive) | 13.9 µM (inactive) | 3.93 µM (inactive) | 37.7 µM (inactive) | 24.9 µM (inactive) | 4.88 µM (inactive) | 26.1 µM (inactive) | 36.5 µM (inactive) | 1.93 µM (inactive) | > 68.1 µM (inactive) | 2.26 µM (inactive) | 2.71 µM (inactive) | – | > 69.2 µM (inactive) |
